According to patent US11612553B2, “Oral care product and methods of use and manufacture thereof” (Colgate-Palmolive Company, priority 2008, dated 2023):

Tested on: S. sanguis
Experiment: Ammonia production by S. sanguis at pH 4.0
Type: cell-based
Conditions: mean of 6 trials; 5 millimolar amino acid, pH 4.0, 0.1% sucrose, 37° C., 30 minutes
Procedure: An overnight culture of S. sanguis was grown at 37° C. in trypticase soy broth (Becton Dickinson, Sparks, Md.). The culture was centrifuged at 5,000 rpm for 5 minutes at 1 milliliter at a time into preweighed tubes in order to accumulate approximately 5 milligrams of wet pellet weight. The pellet was then resuspended into 20 millimolar potassium phosphate buffer (JT Baker, Phillipsburg, N.J.), pH 4.0, to simulate a stressed environment for the bacterial cell where ammonia would be produced for survival. The final concentration was 5 milligram per milliliter. To this final concentration, a 5 millimolar final concentration of L-arginine, L-citrulline, or L-ornithine was added along with a 0.1% final concentration of sucrose (VWR, West Chester, Pa.). This mixture was then incubated at 37° C. in a shaking water bath for 30 minutes before ammonia production was determined.
In order to analyze for ammonia, an Ammonia Assay kit was used from Diagnostic Chemicals Limited (Oxford, Conn.). The intended use of this specific kit is for the in vitro quantification of ammonia in plasma, but the procedure was modified in order to determine and quantify the ammonia production in plaque and/or bacteria.

N=C(N)NCCC[C@H](N)C(=O)O [L-Arginine, L-arginine]
Ammonia, Mean: 1.06 ppm

NC(=O)NCCC[C@H](N)C(=O)O [L-Citrulline, L-citrulline]
Ammonia, Mean: 0.951 ppm
